Reference: ChEMBL document CHEMBL1955797, “Discovery of vinylcycloalkyl-substituted benzimidazole TRPM8 antagonists effective in the treatment of cold allodynia” (Bioorg Med Chem Lett, 2012)
pIC50: −log10 of the molar value. The source made the active and inactive calls. The rule behind the calls is not given here.

Key:
[1] = Metabolic stability in rat liver microsomes assessed as compound remaining after 10 mins; type: ADME, Microsome; conditions: read-out: Stability
[2] = Metabolic stability in human liver microsomes assessed as compound remaining after 10 mins; type: ADME, Microsome; conditions: read-out: Stability
[3] = Metabolic stability in dog liver microsomes assessed as compound remaining after 10 mins; type: ADME, Canis lupus familiaris, Microsome; conditions: read-out: Stability
[4] = target: Transient receptor potential M8 protein (Canis lupus familiaris, UniProt Q1A7N1); test: Antagonist activity at dog TRPM8 expressed in HEK293 cells assessed as inhibition of icilin-induced calcium flux by FLIPR assay; type: functional, cell-based
Sequence of Transient receptor potential M8 protein (Q1A7N1 whole entry): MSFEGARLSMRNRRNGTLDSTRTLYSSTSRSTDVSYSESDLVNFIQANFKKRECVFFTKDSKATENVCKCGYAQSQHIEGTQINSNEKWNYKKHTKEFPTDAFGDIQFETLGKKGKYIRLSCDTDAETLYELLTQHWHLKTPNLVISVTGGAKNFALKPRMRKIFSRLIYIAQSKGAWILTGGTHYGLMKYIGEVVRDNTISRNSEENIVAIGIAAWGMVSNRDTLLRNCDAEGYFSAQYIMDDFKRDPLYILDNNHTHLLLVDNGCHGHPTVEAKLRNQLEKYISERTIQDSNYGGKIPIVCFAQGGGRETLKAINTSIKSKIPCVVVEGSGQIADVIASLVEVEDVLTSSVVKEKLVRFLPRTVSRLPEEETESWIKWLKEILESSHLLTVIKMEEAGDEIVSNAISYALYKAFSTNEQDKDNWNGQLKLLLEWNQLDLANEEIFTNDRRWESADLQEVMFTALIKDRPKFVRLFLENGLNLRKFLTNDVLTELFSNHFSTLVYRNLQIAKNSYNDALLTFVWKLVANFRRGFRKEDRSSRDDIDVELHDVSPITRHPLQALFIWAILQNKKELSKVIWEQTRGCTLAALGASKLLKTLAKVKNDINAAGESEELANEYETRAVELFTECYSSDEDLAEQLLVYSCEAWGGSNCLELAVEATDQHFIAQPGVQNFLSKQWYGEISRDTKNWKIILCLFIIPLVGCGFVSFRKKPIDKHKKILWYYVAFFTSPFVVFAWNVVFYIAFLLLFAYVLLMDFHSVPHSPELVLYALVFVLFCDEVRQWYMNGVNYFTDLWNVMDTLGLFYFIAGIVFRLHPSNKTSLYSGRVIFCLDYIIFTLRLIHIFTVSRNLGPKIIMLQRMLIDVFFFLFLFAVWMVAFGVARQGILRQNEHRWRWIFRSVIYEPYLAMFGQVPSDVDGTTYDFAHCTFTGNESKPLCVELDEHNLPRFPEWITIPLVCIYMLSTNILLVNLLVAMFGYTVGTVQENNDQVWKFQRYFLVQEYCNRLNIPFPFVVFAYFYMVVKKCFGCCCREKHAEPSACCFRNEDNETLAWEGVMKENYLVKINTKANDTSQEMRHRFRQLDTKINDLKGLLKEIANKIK

[5] = target: Transient receptor potential M8 protein (Canis lupus familiaris) (UniProt Q1A7N1); test: Antagonist activity at dog TRPM8 expressed in human HEK293 cells assessed as inhibition of icilin-induced calcium flux at 0.2 uM by FLIPR assay; type: functional, cell-based
Sequence of Transient receptor potential M8 protein (Canis lupus familiaris) (Q1A7N1 1-1104): as the sequence (Q1A7N1 whole entry) above

Rattus norvegicus [6] = test: Antiallodynic activity against chronic constriction injury cold allodynia in rat assessed as inhibition of cold hypersensitivity at 10 mg/kg, po measured after 2 hrs post dosing; type: functional, organism-based; design: dose 10 mg/kg
Rattus norvegicus [7] = test: Antiallodynic activity against chronic constriction injury cold allodynia in rat assessed as inhibition of cold hypersensitivity at 10 mg/kg, po measured after 2 to 3 hrs post dosing; type: functional
Cytochrome P450 2C19 [8] = target: T1, Cytochrome P450 2C19 (Homo sapiens, UniProt P33261); test: Inhibition of recombinant CYP2C19; type: ADME
T1 sequence (P33261 whole entry): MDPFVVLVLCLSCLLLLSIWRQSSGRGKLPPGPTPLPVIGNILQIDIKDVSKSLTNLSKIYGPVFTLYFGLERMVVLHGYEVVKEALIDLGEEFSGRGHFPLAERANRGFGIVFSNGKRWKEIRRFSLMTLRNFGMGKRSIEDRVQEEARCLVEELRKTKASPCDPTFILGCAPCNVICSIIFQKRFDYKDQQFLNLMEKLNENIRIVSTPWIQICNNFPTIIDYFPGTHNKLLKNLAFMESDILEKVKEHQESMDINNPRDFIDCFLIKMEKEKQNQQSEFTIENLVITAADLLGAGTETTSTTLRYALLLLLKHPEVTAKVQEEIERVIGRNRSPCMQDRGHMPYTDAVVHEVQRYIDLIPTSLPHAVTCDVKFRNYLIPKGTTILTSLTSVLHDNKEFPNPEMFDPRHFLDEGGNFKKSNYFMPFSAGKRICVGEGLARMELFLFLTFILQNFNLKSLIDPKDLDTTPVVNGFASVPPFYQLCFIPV

[9] = Half life in rat at 10 mg/kg; type: ADME, organism-based; design: dose 10 mg/kg; conditions: in vivo
Cytochrome P450 2C19 [10] = target: T1, Cytochrome P450 2C19; test: Inhibition of CYP2C19 in human liver microsomes; type: ADME, Microsome
[11] = Volume of distribution at steady state in rat at 10 mg/kg; type: ADME, organism-based; design: dose 10 mg/kg; conditions: in vivo, read-out: Vdss
[12] = target: Transient receptor potential cation channel subfamily M member 8 (Homo sapiens, UniProt Q7Z2W7); test: Antagonist activity at human TRPM8 by calcium flux assay; type: functional
Sequence of Transient receptor potential cation channel subfamily M member 8 (Homo sapiens, UniProt Q7Z2W7) (Q7Z2W7 whole entry): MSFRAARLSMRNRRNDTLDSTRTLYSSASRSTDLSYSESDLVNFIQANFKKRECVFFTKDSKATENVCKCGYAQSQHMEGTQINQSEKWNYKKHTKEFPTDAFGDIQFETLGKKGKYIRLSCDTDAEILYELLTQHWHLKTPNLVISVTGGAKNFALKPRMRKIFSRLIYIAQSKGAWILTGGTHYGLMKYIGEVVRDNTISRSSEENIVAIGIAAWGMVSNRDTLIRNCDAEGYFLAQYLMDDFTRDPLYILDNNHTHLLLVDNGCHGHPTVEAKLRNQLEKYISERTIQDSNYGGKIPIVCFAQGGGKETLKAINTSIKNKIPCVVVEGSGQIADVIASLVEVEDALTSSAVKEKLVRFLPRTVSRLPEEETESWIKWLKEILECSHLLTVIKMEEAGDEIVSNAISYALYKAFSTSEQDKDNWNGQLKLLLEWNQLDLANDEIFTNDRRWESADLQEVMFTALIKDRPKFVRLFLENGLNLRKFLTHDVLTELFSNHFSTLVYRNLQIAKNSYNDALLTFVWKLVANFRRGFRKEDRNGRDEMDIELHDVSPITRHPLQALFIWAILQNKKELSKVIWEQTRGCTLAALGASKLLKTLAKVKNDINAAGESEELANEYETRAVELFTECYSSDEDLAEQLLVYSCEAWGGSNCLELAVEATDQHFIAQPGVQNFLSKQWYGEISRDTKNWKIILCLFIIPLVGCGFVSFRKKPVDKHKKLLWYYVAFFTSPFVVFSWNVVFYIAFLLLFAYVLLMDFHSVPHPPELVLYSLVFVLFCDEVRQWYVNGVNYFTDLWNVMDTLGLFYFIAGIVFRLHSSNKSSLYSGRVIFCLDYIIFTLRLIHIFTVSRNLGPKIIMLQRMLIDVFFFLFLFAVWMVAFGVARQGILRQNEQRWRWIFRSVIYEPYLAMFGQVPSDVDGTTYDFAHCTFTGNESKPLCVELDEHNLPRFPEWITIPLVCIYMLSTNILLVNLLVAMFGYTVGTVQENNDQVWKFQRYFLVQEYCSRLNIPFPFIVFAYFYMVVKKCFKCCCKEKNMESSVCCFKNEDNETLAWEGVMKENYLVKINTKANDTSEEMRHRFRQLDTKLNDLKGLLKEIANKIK

Cytochrome P450 2D6 = Cytochrome P450 2D6 (Homo sapiens, UniProt P10635); test: Inhibition of recombinant CYP2D6; type: ADME
Sequence of Cytochrome P450 2D6 (P10635 whole entry): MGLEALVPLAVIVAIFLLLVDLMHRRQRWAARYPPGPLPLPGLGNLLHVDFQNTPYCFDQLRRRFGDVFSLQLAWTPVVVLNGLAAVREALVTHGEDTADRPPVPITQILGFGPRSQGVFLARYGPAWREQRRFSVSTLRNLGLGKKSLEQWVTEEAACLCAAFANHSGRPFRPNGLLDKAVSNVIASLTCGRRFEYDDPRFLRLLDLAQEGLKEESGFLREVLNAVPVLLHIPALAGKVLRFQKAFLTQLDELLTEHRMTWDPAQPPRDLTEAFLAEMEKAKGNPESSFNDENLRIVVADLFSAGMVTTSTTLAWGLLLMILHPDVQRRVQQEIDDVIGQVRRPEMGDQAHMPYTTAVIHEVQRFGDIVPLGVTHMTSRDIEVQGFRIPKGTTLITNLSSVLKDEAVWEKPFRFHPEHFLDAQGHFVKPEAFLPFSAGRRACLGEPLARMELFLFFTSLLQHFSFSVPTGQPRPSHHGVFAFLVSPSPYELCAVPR

Cytochrome P450 2C9 = Cytochrome P450 2C9 (Homo sapiens, UniProt P11712); test: Inhibition of recombinant CYP2C9; type: ADME
Rattus norvegicus [13] = test: Antiallodynic activity against chronic constriction injury cold allodynia in rat assessed as inhibition of cold hypersensitivity at 30 mg/kg, po measured after 2 to 3 hrs post dosing; type: functional
[14] = Oral bioavailability in rat at 10 mg/kg; type: ADME, organism-based; conditions: in vivo
[15] = Clearance in rat at 10 mg/kg; type: ADME, organism-based; design: dose 10 mg/kg; conditions: in vivo
Rattus norvegicus [16] = test: Antiallodynic activity against chronic constriction injury cold allodynia in rat assessed as inhibition of cold hypersensitivity at 10 mg/kg, po measured after 4 hrs post dosing; type: functional, organism-based; design: dose 10 mg/kg
[17] = target: Transient receptor potential cation channel subfamily M member 8 (Rattus norvegicus, UniProt Q8R455); test: Antagonist activity at rat TRPM8 by calcium flux assay; type: functional
Sequence of Transient receptor potential cation channel subfamily M member 8 (Rattus norvegicus, UniProt Q8R455) (Q8R455 whole entry): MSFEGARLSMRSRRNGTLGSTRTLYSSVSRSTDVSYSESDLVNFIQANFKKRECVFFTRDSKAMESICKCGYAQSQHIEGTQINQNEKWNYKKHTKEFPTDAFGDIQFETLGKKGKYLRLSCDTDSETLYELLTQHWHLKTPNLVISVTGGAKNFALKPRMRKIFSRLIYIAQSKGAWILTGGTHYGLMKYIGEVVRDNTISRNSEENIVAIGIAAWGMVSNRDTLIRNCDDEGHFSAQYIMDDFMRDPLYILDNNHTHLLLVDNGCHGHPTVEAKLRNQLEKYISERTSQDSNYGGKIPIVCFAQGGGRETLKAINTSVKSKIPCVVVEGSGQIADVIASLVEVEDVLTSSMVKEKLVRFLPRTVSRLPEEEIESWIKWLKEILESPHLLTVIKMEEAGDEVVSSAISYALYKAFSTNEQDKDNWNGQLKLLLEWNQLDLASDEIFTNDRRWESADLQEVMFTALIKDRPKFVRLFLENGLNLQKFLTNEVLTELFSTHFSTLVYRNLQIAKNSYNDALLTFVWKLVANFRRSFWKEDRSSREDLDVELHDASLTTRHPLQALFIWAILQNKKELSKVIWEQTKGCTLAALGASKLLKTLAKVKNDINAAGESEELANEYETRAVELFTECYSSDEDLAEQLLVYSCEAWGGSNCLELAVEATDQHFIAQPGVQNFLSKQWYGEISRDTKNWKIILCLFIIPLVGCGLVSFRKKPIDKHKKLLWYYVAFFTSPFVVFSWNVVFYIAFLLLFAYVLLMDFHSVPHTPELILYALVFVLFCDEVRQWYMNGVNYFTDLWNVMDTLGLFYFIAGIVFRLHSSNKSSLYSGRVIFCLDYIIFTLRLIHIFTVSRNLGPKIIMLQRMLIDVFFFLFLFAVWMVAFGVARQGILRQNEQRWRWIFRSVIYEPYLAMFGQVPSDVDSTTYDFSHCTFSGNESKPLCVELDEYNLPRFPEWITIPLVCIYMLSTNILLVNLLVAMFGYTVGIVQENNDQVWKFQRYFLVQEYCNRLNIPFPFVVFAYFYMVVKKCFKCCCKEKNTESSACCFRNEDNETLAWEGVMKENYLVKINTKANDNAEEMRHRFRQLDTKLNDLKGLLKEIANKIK

Cytochrome P450 3A4 [18] = target: T2, Cytochrome P450 3A4 (Homo sapiens, UniProt P08684); test: Inhibition of recombinant CYP3A4; type: ADME
T2 sequence (P08684 whole entry): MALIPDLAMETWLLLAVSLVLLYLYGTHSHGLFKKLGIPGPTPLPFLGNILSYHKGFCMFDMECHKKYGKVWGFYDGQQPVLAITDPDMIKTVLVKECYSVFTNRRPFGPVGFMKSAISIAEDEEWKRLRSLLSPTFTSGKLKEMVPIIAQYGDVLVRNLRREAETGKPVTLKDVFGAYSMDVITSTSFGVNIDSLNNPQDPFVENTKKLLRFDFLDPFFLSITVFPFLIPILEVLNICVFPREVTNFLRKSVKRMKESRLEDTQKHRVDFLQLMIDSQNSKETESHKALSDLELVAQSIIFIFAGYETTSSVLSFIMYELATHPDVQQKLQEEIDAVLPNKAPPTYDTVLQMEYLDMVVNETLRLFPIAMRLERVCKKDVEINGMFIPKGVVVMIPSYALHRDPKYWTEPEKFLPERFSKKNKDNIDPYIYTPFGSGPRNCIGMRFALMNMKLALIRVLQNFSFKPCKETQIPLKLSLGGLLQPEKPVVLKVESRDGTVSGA

Cytochrome P450 3A4 [19] = target: T2, Cytochrome P450 3A4; test: Inhibition of CYP3A4 in human liver microsomes; type: ADME, Microsome
[20] = Tmax in rat at 10 mg/kg; type: ADME, organism-based; design: dose 10 mg/kg; conditions: in vivo
CYP2C9 = CYP2C9 (Homo sapiens, UniProt P11712); test: Inhibition of CYP2C9 in human liver microsomes at 3.3 uM; type: ADME, Microsome
Rattus norvegicus [21] = test: Inhibition of icilin-induced wet dog shakes behavior in po dosed rat administered 60 mins prior to icilin challenge; type: functional
Liver microsomes = test: Metabolic stability in human liver microsomes assessed as CYP3A4-mediated glutathione adduct formation by glutathione conjugation assay; type: ADME, Microsome
Cytochrome P450 1A2 = target: T3, Cytochrome P450 1A2 (Homo sapiens, UniProt P05177); test: Inhibition of recombinant CYP1A2; type: ADME
T3 sequence (P05177 whole entry): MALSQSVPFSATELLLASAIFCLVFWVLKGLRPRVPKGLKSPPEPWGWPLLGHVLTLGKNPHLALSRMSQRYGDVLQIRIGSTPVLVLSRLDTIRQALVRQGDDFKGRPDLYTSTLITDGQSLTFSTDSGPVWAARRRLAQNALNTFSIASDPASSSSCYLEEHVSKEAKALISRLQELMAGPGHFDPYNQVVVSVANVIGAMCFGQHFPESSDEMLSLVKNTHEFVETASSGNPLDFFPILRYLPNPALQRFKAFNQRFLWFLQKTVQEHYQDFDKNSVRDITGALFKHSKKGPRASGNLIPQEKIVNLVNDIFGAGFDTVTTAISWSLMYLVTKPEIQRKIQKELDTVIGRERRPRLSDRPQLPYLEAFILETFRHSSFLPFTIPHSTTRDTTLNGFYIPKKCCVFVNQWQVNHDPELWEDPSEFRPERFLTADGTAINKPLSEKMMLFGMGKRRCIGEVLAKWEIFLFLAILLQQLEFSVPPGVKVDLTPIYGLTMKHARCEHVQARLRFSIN

[22] = Cmax in rat at 10 mg/kg; type: ADME, organism-based; design: dose 10 mg/kg; conditions: in vivo

## FC(F)(F)c1ccccc1-c1ccc2[nH]c(/C=C/C3CCSCC3)nc2c1
[1]
  remaining at 10 min: 6%
[2]
  remaining at 10 min: 67%
[3]
  remaining at 10 min: 8%

## FC(F)(F)c1ccccc1-c1ccc2[nH]c(/C=C/C3CCOCC3)nc2c1
[4]
  pIC50: 8.15
[1]
  remaining at 10 min: 79%
[2]
  remaining at 10 min: 93%
[3]
  remaining at 10 min: 51%

## CS(=O)(=O)N1CCC(/C=C/c2nc3cc(-c4ccccc4C(F)(F)F)ccc3[nH]2)CC1
[5]
  inhibition: 14%
[3]
  remaining at 10 min: 75%

## CC1(/C=C/c2nc3cc(-c4ccccc4C(F)(F)F)ccc3[nH]2)CCC(F)(F)CC1
[4]
  pIC50: 8.05
[1]
  remaining at 10 min: 84%
[2]
  remaining at 10 min: 97%
[3]
  remaining at 10 min: 28%

## COc1ccccc1-c1ccc2[nH]c(/C=C/C3CCCCC3)nc2c1
[4]
  pIC50: 8.05
[1]
  remaining at 10 min: 10%
[2]
  remaining at 10 min: 62%

## Cc1ccccc1-c1ccc2[nH]c(/C=C/C3CCCCC3)nc2c1
[4]
  pIC50: 8.15
[1]
  remaining at 10 min: 15%
[2]
  remaining at 10 min: 77%
[3]
  remaining at 10 min: 13%

## C(=C\C1CCCCC1)/c1nc2cc(-c3ccccc3)ccc2[nH]1
[4]
  pIC50: 6.96

## FC(F)(F)c1cccc(C(F)(F)F)c1-c1ccc2[nH]c(/C=C/C3CCCCC3)nc2c1
[4]
  pIC50: 7.91
[1]
  remaining at 10 min: 44%
[2]
  remaining at 10 min: 56%
[3]
  remaining at 10 min: 61%

## FC(F)(F)c1ccccc1-c1ccc2[nH]c(/C=C/C3CCCCC3)nc2c1
Rattus norvegicus [6]
  Activity: Active
Rattus norvegicus [7]
  inhibition in vivo at 10 mg/kg: 90%
Cytochrome P450 2C19 [8]
  pIC50: < 5.00
[9]
  half-life: 2.9 h
Cytochrome P450 2C19 [10]
  pIC50: < 4.52
[11]
  Vd: 9.5 L/kg
[12]
  pIC50: 7.82
Cytochrome P450 2D6
  pIC50: < 5.00
[4]
  pIC50: 7.96
Cytochrome P450 2C9
  pIC50: 5.46
Rattus norvegicus [13]
  inhibition in vivo at 30 mg/kg: 90%
[1]
  remaining at 10 min: 58%
[2]
  remaining at 10 min: 85%
[14]
  bioavailability: 14%
[15]
  clearance: 22 mL/min/kg
Rattus norvegicus [16]
  Activity: Active
[3]
  remaining at 10 min: 20%
[17]
  pIC50: 7.70
Cytochrome P450 3A4 [18]
  pIC50: 5.46
Cytochrome P450 3A4 [19]
  pIC50: < 4.52
[20]
  Tmax: 1.6 h
CYP2C9
  inhibition at 3.3 µM: 62%
Rattus norvegicus [21]
  ED50: 6.4 mg/kg
  inhibition: Dose-dependent effect
Liver microsomes
  Stability: Stable
Cytochrome P450 1A2
  pIC50: < 5.00
[22]
  Cmax: 225 ng/mL

## FC(F)(F)Oc1ccccc1-c1ccc2[nH]c(/C=C/C3CCCC3)nc2c1
[4]
  pIC50: 6.96
[1]
  remaining at 10 min: 71%
[2]
  remaining at 10 min: 84%

## FC(F)(F)c1ccccc1-c1ccc2[nH]c(/C=C/C3CCNCC3)nc2c1
[5]
  inhibition: 16%
[1]
  remaining at 10 min: 86%
[2]
  remaining at 10 min: 99%
[3]
  remaining at 10 min: 98%

## FC(F)(F)c1cccnc1-c1ccc2[nH]c(/C=C/C3CCCCC3)nc2c1
[4]
  pIC50: 7.42
[1]
  remaining at 10 min: 72%
[2]
  remaining at 10 min: 90%
[3]
  remaining at 10 min: 42%

## FC(F)(F)Oc1ccccc1-c1ccc2[nH]c(/C=C/C3CCCCC3)nc2c1
[1]
  remaining at 10 min: 91%
[2]
  remaining at 10 min: 71%

## FC1(F)CCC(/C=C/c2nc3cc(-c4ccccc4C(F)(F)F)ccc3[nH]2)CC1
[4]
  pIC50: 7.68
[1]
  remaining at 10 min: 100%
[2]
  remaining at 10 min: 47%
[3]
  remaining at 10 min: 39%

## O=S1(=O)CCC(/C=C/c2nc3cc(-c4ccccc4C(F)(F)F)ccc3[nH]2)CC1
[5]
  inhibition: 63%
[1]
  remaining at 10 min: 74%
[2]
  remaining at 10 min: 91%
[3]
  remaining at 10 min: 60%

## CC1(/C=C/c2nc3cc(-c4ccccc4C(F)(F)F)ccc3[nH]2)CCOCC1
[4]
  pIC50: 8.05
[1]
  remaining at 10 min: 20%
[2]
  remaining at 10 min: 62%
[3]
  remaining at 10 min: 35%

## Clc1ccccc1-c1ccc2[nH]c(/C=C/C3CCCCC3)nc2c1
[4]
  pIC50: 8.05
[1]
  remaining at 10 min: 39%
[2]
  remaining at 10 min: 71%

## Fc1ccccc1-c1ccc2[nH]c(/C=C/C3CCCCC3)nc2c1
[4]
  pIC50: 7.68
[1]
  remaining at 10 min: 34%
[2]
  remaining at 10 min: 98%
[3]
  remaining at 10 min: 75%

## CC(=O)N1CCC(/C=C/c2nc3cc(-c4ccccc4C(F)(F)F)ccc3[nH]2)CC1
[5]
  inhibition: 1%
[1]
  remaining at 10 min: 85%
[2]
  remaining at 10 min: 100%
[3]
  remaining at 10 min: 100%

## Fc1cccc(C(F)(F)F)c1-c1ccc2[nH]c(/C=C/C3CCCCC3)nc2c1
[4]
  pIC50: 8.07
[1]
  remaining at 10 min: 66%
[2]
  remaining at 10 min: 67%
[3]
  remaining at 10 min: 42%

## CN1CCC(/C=C/c2nc3cc(-c4ccccc4C(F)(F)F)ccc3[nH]2)CC1
[5]
  inhibition: 1%
